Experiments:
[1] = tested on: other kinases, including both Aurora B and Aurora C; conditions: cited from earlier work
[2] = tested on: AURKA, AURKB, BIRC5, PRC1, TACC3, DLGAP5 [DLG7], and NDC80 [KNTC2]; experiment: Gene expression PD biomarkers by quantitative RT-PCR on hair follicle RNA; type: in vivo, human; conditions: Panel 1 (MT), p < 0.05 unadjusted
HeLaS3 cells = conditions: cited from earlier work
Safety and tolerability = type: in vivo
[3] = Crossover from Panel 1 to Panel 2 (n = 4)

## O=C(O)[C@]1(Cc2cccc(Nc3nccs3)n2)CC[C@@H](Oc2cccc(Cl)c2F)CC1 [MK-5108]
[1]
  target specificity relative to other kinases: comparatively high target specificity
[2]
  genes (of seven) with significant dose-related changes in the expected direction: 5 genes
HeLaS3 cells
  apoptosis in combination with docetaxel: robustly potentiated apoptosis
Safety and tolerability; Crossover (N = 4)
  Drug-related AEs by SOC: Blood and lymphatic system disorders: 2 (50.0) n (%)
  Drug-related AEs by SOC: Gastrointestinal disorders: 1 (25.0) n (%)
  Drug-related AEs by SOC: General disorders and administration site conditions: 2 (50.0) n (%)
  Drug-related AEs by SOC: Infections and infestations: 0 (0.0) n (%)
  Drug-related AEs by SOC: Investigations: 1 (25.0) n (%)
  Drug-related AEs by SOC: Metabolism and nutrition disorders: 2 (50.0) n (%)
  Drug-related AEs by SOC: Musculoskeletal and connective tissue disorders: 1 (25.0) n (%)
  Drug-related AEs by SOC: Nervous system disorders: 1 (25.0) n (%)
  Drug-related AEs by SOC: Respiratory, thoracic and mediastinal disorders: 1 (25.0) n (%)
  Drug-related AEs by SOC: Skin and subcutaneous tissue disorders: 1 (25.0) n (%)
  Drug-related AEs by SOC: Vascular disorders: 0 (0.0) n (%)
  Patients with drug-related AEs, highest grade: Grade 1: 1 (25.0) n (%)
  Patients with drug-related AEs, highest grade: Grade 2: 0 (0.0) n (%)
  Patients with drug-related AEs, highest grade: Grade 3: 1 (25.0) n (%)
  Patients with drug-related AEs, highest grade: Grade 4: 1 (25.0) n (%)
  Patients with no drug-related AEs: 1 (25.0) n (%)
  Patients with one or more drug-related AEs: 3 (75.0) n (%)
Safety and tolerability; [3]
  Death: 0 n (%)
  Discontinued treatment due to a drug-related AE: 0 n (%)
  Discontinued treatment due to a drug-related SAE: 0 n (%)
  Discontinued treatment due to an SAE: 0 n (%)
  Discontinued treatment due to any AE: 0 n (%)
  Patients with any AE: 4 (100.0) n (%)
  Patients with drug-related AE: 3 (75.0) n (%)
  Patients with no AE: 0 n
  Patients with serious AE: 0 n (%)
  Patients with serious drug-related AE: 0 n (%)
Safety and tolerability; MK-5108 MT, doses up to 1800 mg Q12hr
  MTD: not established
Safety and tolerability; MT, doses up to 1800 mg Q12hr (3600 mg/day)
  tolerability: generally well tolerated
Safety and tolerability; Panel 1 (MT)
  patients experiencing a DLT: no patients
  patients with a Grade 3 or 4 drug-related AE: No patients
Safety and tolerability; Panel 1 (MT), 11/14
  AEs (all grades and doses) by SOC: General disorders and administration site conditions: 78.6%
Safety and tolerability; Panel 1 (MT), 12/14
  AEs (all grades and doses) by SOC: Gastrointestinal disorders: 85.7%
Safety and tolerability; Panel 1: MK-5108 MT (N = 14)
  Drug-related AEs by SOC: Blood and lymphatic system disorders: 4 (28.6) n (%)
  Drug-related AEs by SOC: Gastrointestinal disorders: 7 (50.0) n (%)
  Drug-related AEs by SOC: General disorders and administration site conditions: 7 (50.0) n (%)
  Drug-related AEs by SOC: Infections and infestations: 0 (0.0) n (%)
  Drug-related AEs by SOC: Investigations: 2 (14.3) n (%)
  Drug-related AEs by SOC: Metabolism and nutrition disorders: 2 (14.3) n (%)
  Drug-related AEs by SOC: Musculoskeletal and connective tissue disorders: 1 (7.1) n (%)
  Drug-related AEs by SOC: Nervous system disorders: 3 (21.4) n (%)
  Drug-related AEs by SOC: Respiratory, thoracic and mediastinal disorders: 1 (7.1) n (%)
  Drug-related AEs by SOC: Skin and subcutaneous tissue disorders: 1 (7.1) n (%)
  Drug-related AEs by SOC: Vascular disorders: 0 (0.0) n (%)
  Patients with drug-related AEs, highest grade: Grade 1: 3 (21.4) n (%)
  Patients with drug-related AEs, highest grade: Grade 2: 5 (35.7) n (%)
  Patients with drug-related AEs, highest grade: Grade 3: 0 (0.0) n (%)
  Patients with drug-related AEs, highest grade: Grade 4: 0 (0.0) n (%)
  Patients with no drug-related AEs: 6 (42.9) n (%)
  Patients with one or more drug-related AEs: 8 (57.1) n (%)
Safety and tolerability; Panel 1: MK-5108 MT (n = 14)
  Death: 1 (7.1) n (%)
  Discontinued treatment due to a drug-related AE: 0 n (%)
  Discontinued treatment due to a drug-related SAE: 0 n (%)
  Discontinued treatment due to an SAE: 1 (7.1) n (%)
  Discontinued treatment due to any AE: 2 (14.3) n (%)
  Patients with any AE: 14 (100.0) n (%)
  Patients with drug-related AE: 8 (57.1) n (%)
  Patients with no AE: 0 n
  Patients with serious AE: 4 (28.6) n (%)
  Patients with serious drug-related AE: 0 n (%)
Safety and tolerability; Panel 2 (CT), 100 mg Q12hr (200 mg/day), febrile neutropenia (Grade 3)
  patients experiencing a DLT: one patient
Safety and tolerability; Panel 2 (CT), 150 mg Q12hr, 6 patients
  patients experiencing any DLTs: None
Safety and tolerability; Panel 2 (CT), 225 mg Q12hr (450 mg/day), febrile neutropenia (Grade 4) and infection (Grade 3)
  DLTs: 2
Safety and tolerability; Panel 2 (CT), 12/17
  AEs (all grades and doses) by SOC: Gastrointestinal disorders: 70.6%
  AEs (all grades and doses) by SOC: Metabolism and nutrition disorders: 70.6%
